The record followed here is patent US11571480B2, “Multi-ligand drug conjugates and uses thereof” (priority 2015, dated 2023).

SMILES strings stand for the structures. Square brackets hold non-standard residues; d marks the D form. Peptide text beside a SMILES is read from it. * marks the point of attachment. Dolaproine = CO[C@@H]([C@@H]1CCCN1)[C@@H](C)C(=O)O; Dil = CC[C@H](C)[C@H](NC)[C@@H](CC(=O)O)OC; X1 = C[C@@H](N*)[C@@H](O)c1ccccc1; NMeV = CN[C@H](C(=O)O)C(C)C

Data set [1] concerns human colon carcinoma HCT-116. In words: Cytotoxicity test of conjugate LDC12B. The data set is classed as cell-based. Conditions: HCT-116, incubated 15-30 min, then 2-3 days. As for the experimental part: (§1) Culture medium: RPMI 1640 Medium, no folic acid
(§2) 1) human endometrial cancer cell HEC-1A, human gastric cancer cell line GTL-16, human colon carcinoma HCT-116, human neuroblastoma cell line SH-SY5Y were incubated at 37° C., 5% CO2 in RPMI 1640 medium containing 10% fetal bovine serum, the cells were passaged every 2-3 days.
(§3) 2) human endometrial cancer cell HEC-1A, human gastric cancer cell line GTL-16, Human colon carcinoma HCT-116, human neuroblastoma cell line SH-SY5Y were plated at 1×10^3 cells per well (96-well plate) and incubated for 8-12 h at 37° C., 5% CO2.
(§4) 3) Stock solutions of LDC conjugates or control were prepared in PBS solution. 100 μL/well of serially diluted LDC conjugates or control was added to the cells in the plate and incubated for 15-30 min at 37° C., 5% CO2. The culture medium in the wells was then removed by aspiration and the cells were incubated in fresh culture medium without conjugates (150 μL/well) for 2-3 days at 37° C., 5% CO2.
(§5) 4) CellTiter 96® Aqueous One Solution Cell Proliferation Assay (Promega) was added to each well to measure the amount of […] cells, and the plate was incubated in an incubator for 1 h at 37° C., 5% CO2.
(§6) 5) the plate was read at 490 nm on a microplate reader, and the cell survivals were compared for cells with or without the treatment of LDC conjugates. The LDC drug concentrations that are required for 50% cell death (IC50 values) were determined.

Data set [2] deals with human gastric cancer cell line GTL-16. In words: Cytotoxicity test of conjugate LDC12B. The data set is classed as cell-based. Conditions: GTL-16, incubated 15-30 min, then 2-3 days. As for the experimental part:
as §1, §2, §3, §4, §5, §6

In data set [3] the test system is human endometrial cancer cell HEC-1A. In words: Cytotoxicity test of conjugate LDC12B. The data set is classed as cell-based. Particulars: incubated 15-30 min, then 2-3 days. How it is done: as §1, §2, §3, §4, §5, §6
Data set [4] relates to human neuroblastoma cell line SH-SY5Y. In words: Cytotoxicity test of conjugate LDC12B. The data set is classed as cell-based. Particulars: incubated 15-30 min, then 2-3 days. How it is done:
as §1, §2, §3, §4, §5, §6

Data set [5] has as its system human nasopharyngeal cancer cell line KB. In words: Cytotoxicity test of conjugate LDC1013. The data set is classed as cell-based. Conditions: incubated 15-30 min, then 2-3 days. As for the experimental part:
as §1
(§7) 1) human nasopharyngeal cancer cell line KB, melanoma cell line A375, and human lung cancer cell H460 were incubated at 37° C., 5% CO2 in RPMI 1640 medium containing 10% fetal bovine serum, the cells were passaged every 2-3 days.
(§8) 2) human nasopharyngeal cancer cell line KB, melanoma cell line A375, and human lung cancer cell H460 were plated at 1×10^3 cells per well (96-well plate) and incubated for 8-12 h at 37° C., 5% CO2.
as §4, §5, §6

Data set [6] has as its system human lung cancer cell H460. In words: Cytotoxicity test of conjugate LDC1013. The data set is classed as cell-based. Particulars: H460, incubated 15-30 min, then 2-3 days. How it is done: as §1, §7, §8, §4, §5, §6
Another data set concerns melanoma cell line A375. In words: Cytotoxicity test of conjugate LDC1013. The data set is classed as cell-based. Particulars: A375, incubated 15-30 min, then 2-3 days. As for the experimental part:
as §1, §7, §8, §4, §5, §6

The subject of data set [7] is breast cancer cell line HCC1954. In words: Cytotoxicity test of conjugate LDC10B. Particulars: HCC1954, Incubation Time 30 min. The data set is classed as cell-based, human. How it is done: as §1
(§9) 1) human nasopharyngeal cancer cell line KB, melanoma cell line A375, human lung cancer cell H1299, chronic myeloid leukemia cell line K562, human lung cancer cell H460, ovarian cancer cell SKOV3, breast cancer cell line HCC1954, human gastric cancer cell N87, and human breast cancer cell SK-BR-3 were incubated at 37° C., 5% CO2 in RPMI 1640 medium containing 10% fetal bovine serum, the cells were passaged every 2-3 days.
(§10) 2) human nasopharyngeal cancer cell line KB, melanoma cell line A375, human lung cancer cell H1299, chronic myeloid leukemia cell line K562, human lung cancer cell H460, ovarian cancer cell SKOV3, breast cancer cell line HCC1954, human gastric cancer cell N87, and human breast cancer cell SK-BR-3 were plated at 1×10^3 cells per well (96-well plate) and incubated for 8-12 h at 37° C., 5% CO2.
(§11) 3) Stock solutions of LDC conjugates or controls were prepared in PBS solution. 100 μL/well of serially diluted LDC conjugates or controls was added to the test cells in the plates and incubated for 15-30 min at 37° C., 5% CO2. The culture medium in the wells was then removed by aspiration and the test cells were incubated in fresh culture medium without conjugates (150 μL/well) for 2-3 days at 37° C., 5% CO2.
(§12) 4) CellTiter 96® Aqueous One Solution Cell Proliferation Assay (Promega) was added to each well to measure the amount of […] cells, and each plate was incubated in an incubator for 1 h at 37° C., 5% CO2.
(§13) 5) Each plate was read at 490 nm on a microplate reader, and the cell survivals were compared for test cells with or without the treatment of LDC conjugates. The LDC drug concentrations that are required for 50% cell death (IC50 values) were determined.

The subject of data set [8] is ovarian cancer cell SKOV3. In words: Cytotoxicity test of conjugate LDC10B. The data set is classed as cell-based, human. Particulars: SKOV3, Incubation Time 30 min. As for the experimental part: as §1, §9, §10, §11, §12, §13
Data set [9] has as its system human embryonic kidney cell 293A. In words: Cytotoxicity test of conjugate LDC11B. The data set is classed as cell-based. Conditions: incubated 15-30 min, then 2-3 days. As for the experimental part: as §1
(§14) 1) human lung cancer cell H460, ovarian cancer cell SKOV3, human embryonic kidney cell 293A were incubated at 37° C., 5% CO2 in RPMI 1640 medium containing 10% fetal bovine serum, the cells were passaged every 2-3 days.
(§15) 2) human lung cancer cell H460, ovarian cancer cell SKOV3, human embryonic kidney cell 293A were plated at 1×10^3 cells per well (96-well plate) and incubated for 8-12 h at 37° C., 5% CO2.
as §4, §5
(§16) 5) The plate was read at 490 nm on a microplate reader, and the cell survivals were compared for cells with or without the treatment of LDC conjugates. The LDC drug concentrations that are required for 50% cell death (IC50 values) were determined.

Data set [10] relates to human lung cancer cell H460. In words: Cytotoxicity test of conjugate LDC11B. The data set is classed as cell-based. Particulars: H460, incubated 15-30 min, then 2-3 days. How it is done: as §1, §14, §15, §4, §5, §16
Data set [11] deals with human lung cancer cell H460. In words: Cytotoxicity test of conjugate LDC10H. The data set is classed as cell-based. Particulars: H460, incubated 15-30 min, then 2-3 days. How it is done: as §1
(§17) 1) human lung cancer cell H1299, ovarian cancer cell SKOV3, breast cancer cell line HCC1954, and human lung cancer cell H460 were incubated at 37° C., 5% CO2 in RPMI 1640 medium containing 10% fetal bovine serum, the cells were passaged every 2-3 days.
(§18) 2) human lung cancer cell H1299, ovarian cancer cell SKOV3, breast cancer cell line HCC1954, and human lung cancer cell H460 were plated at 1×10^3 cells per well (96-well plate) and incubated for 8-12 h at 37° C., 5% CO2.
as §4, §5, §6

Data set [12] deals with human lung cancer cell H1299. In words: Cytotoxicity test of conjugate LDC10H. The data set is classed as cell-based. Particulars: H1299, incubated 15-30 min, then 2-3 days. How it is done:
as §1, §17, §18, §4, §5, §6

Regarding `CC[C@H](C)[C@@H]([C@@H](CC(=O)N1CCC[C@H]1[C@H](OC)[C@@H](C)C(=O)N[C@H](C)[C@@H](O)c1ccccc1)OC)N(C)C(=O)[C@@H](NC(=O)[C@@H](NC)C(C)C)C(C)C` [MMAE] (H-[NMeV]V[Dil][Dolaproine]-X1), the IC50 (in general, the point on the concentration scale where inhibition reaches its midpoint) in [1] is 12.7 nM; in data set [2], 6.38 nM; in [3] it was 8.74 nM; in data set [4] it was 24 nM; in data set [5], 20 nM; in data set [6] it was 37 nM. The 50% inhibitory concentration (IC50) worked out at 85 nM with melanoma cell line A375; 0.45 nM in [7]; 0.62 nM in data set [8]; 0.86 nM in data set [9]; 0.58 nM in data set [10]; 0.56 nM in data set [11]. For the same compound, the IC50 in data set [12] was determined as 0.71 nM.
